Test results: ChEMBL document CHEMBL5113392, “Novel hybrid pyrrolidinedione-thiazolidinones as potential anticancer agents: Synthesis and biological evaluation” (Eur J Med Chem, 2022)
Activity calls are given as the source filed them. The rule behind the calls is not given here.

Columns and labels:
[1] = system: SR; test: Anticancer activity against human SR cells assessed as growth inhibition incubated for 48 hrs by SRB assay; assay type: functional
[2] = system: NCI-H23; test: Anticancer activity against human NCI-H23 cells assessed as growth inhibition incubated for 48 hrs by SRB assay; assay type: functional
[3] = system: NCI-H522; test: Anticancer activity against human NCI-H522 cells assessed as growth inhibition incubated for 48 hrs by SRB assay; assay type: functional
[4] = system: HCT-116; test: Anticancer activity against human HCT-116 cells assessed as growth inhibition incubated for 48 hrs by SRB assay; assay type: functional
[5] = system: KM12; test: Anticancer activity against human KM12 cells assessed as growth inhibition incubated for 48 hrs by SRB assay; assay type: functional
[6] = system: SW-620; test: Anticancer activity against human SW-620 cells assessed as growth inhibition incubated for 48 hrs by SRB assay; assay type: functional
[7] = system: SK-MEL-2; test: Anticancer activity against human SK-MEL-2 cells assessed as growth inhibition incubated for 48 hrs by SRB assay; assay type: functional
[8] = system: UACC-257; test: Anticancer activity against human UACC-257 cells assessed as growth inhibition incubated for 48 hrs by SRB assay; assay type: functional
[9] = system: NCI/ADR-RES; test: Anticancer activity against human NCI/ADR-RES cells assessed as growth inhibition incubated for 48 hrs by SRB assay; assay type: functional
[10] = system: UO-31; test: Anticancer activity against human UO-31 cells assessed as growth inhibition incubated for 48 hrs by SRB assay; assay type: functional
[11] = system: MDA-MB-231; test: Anticancer activity against human MDA-MB-231 cells assessed as growth inhibition incubated for 48 hrs by SRB assay; assay type: functional
[12] = system: HOP-62; test: Anticancer activity against human HOP-62 cells assessed as total growth inhibition incubated for 48 hrs by SRB assay; assay type: functional
[13] = system: NCI-H23; test: Anticancer activity against human NCI-H23 cells assessed as total growth inhibition incubated for 48 hrs by SRB assay; assay type: functional
[14] = system: NCI-H522; test: Anticancer activity against human NCI-H522 cells assessed as total growth inhibition incubated for 48 hrs by SRB assay; assay type: functional
[15] = system: COLO 205; test: Anticancer activity against human COLO 205 cells assessed as total growth inhibition incubated for 48 hrs by SRB assay; assay type: functional
[16] = system: HCC 2998; test: Anticancer activity against human HCC 2998 cells assessed as total growth inhibition incubated for 48 hrs by SRB assay; assay type: functional
[17] = system: SF-268; test: Anticancer activity against human SF-268 cells assessed as total growth inhibition incubated for 48 hrs by SRB assay; assay type: functional
[18] = system: SF-295; test: Anticancer activity against human SF-295 cells assessed as total growth inhibition incubated for 48 hrs by SRB assay; assay type: functional
[19] = system: SNB-19; test: Anticancer activity against human SNB-19 cells assessed as total growth inhibition incubated for 48 hrs by SRB assay; assay type: functional
[20] = system: UACC-62; test: Anticancer activity against human UACC-62 cells assessed as total growth inhibition incubated for 48 hrs by SRB assay; assay type: functional
[21] = system: OVCAR-5; test: Anticancer activity against human OVCAR-5 cells assessed as total growth inhibition incubated for 48 hrs by SRB assay; assay type: functional
[22] = system: RXF 393; test: Anticancer activity against human RXF 393 cells assessed as total growth inhibition incubated for 48 hrs by SRB assay; assay type: functional
[23] = system: MDA-MB-468; test: Anticancer activity against human MDA-MB-468 cells assessed as total growth inhibition incubated for 48 hrs by SRB assay; assay type: functional
[24] = system: K562; test: Anticancer activity against human K562 cells assessed as lethality incubated for 48 hrs by SRB assay; assay type: functional; details: read-out: LC50 (the source's name)
[25] = system: RPMI-8226; test: Anticancer activity against human RPMI-8226 cells assessed as lethality incubated for 48 hrs by SRB assay; assay type: functional; details: read-out: LC50 (the source's name)
[26] = system: HOP-92; test: Anticancer activity against human HOP-92 cells assessed as lethality incubated for 48 hrs by SRB assay; assay type: functional; details: read-out: LC50 (the source's name)
[27] = system: NCI-H226; test: Anticancer activity against human NCI-H226 cells assessed as lethality incubated for 48 hrs by SRB assay; assay type: functional; details: read-out: LC50 (the source's name)
[28] = system: NCI-H460; test: Anticancer activity against human NCI-H460 cells assessed as lethality incubated for 48 hrs by SRB assay; assay type: functional; details: read-out: LC50 (the source's name)
[29] = system: COLO 205; test: Anticancer activity against human COLO 205 cells assessed as lethality incubated for 48 hrs by SRB assay; assay type: functional; details: read-out: LC50 (the source's name)
[30] = system: HT-29; test: Anticancer activity against human HT-29 cells assessed as lethality incubated for 48 hrs by SRB assay; assay type: functional; details: read-out: LC50 (the source's name)
[31] = system: KM12; test: Anticancer activity against human KM12 cells assessed as lethality incubated for 48 hrs by SRB assay; assay type: functional; details: read-out: LC50 (the source's name)
[32] = system: SNB-19; test: Anticancer activity against human SNB-19 cells assessed as lethality incubated for 48 hrs by SRB assay; assay type: functional; details: read-out: LC50 (the source's name)
[33] = system: M14; test: Anticancer activity against human M14 cells assessed as lethality incubated for 48 hrs by SRB assay; assay type: functional; details: read-out: LC50 (the source's name)
[34] = system: SK-MEL-28; test: Anticancer activity against human SK-MEL-28 cells assessed as lethality incubated for 48 hrs by SRB assay; assay type: functional; details: read-out: LC50 (the source's name)
[35] = system: SN12C; test: Anticancer activity against human SN12C cells assessed as lethality incubated for 48 hrs by SRB assay; assay type: functional; details: read-out: LC50 (the source's name)
[36] = system: DU-145; test: Anticancer activity against human DU-145 cells assessed as lethality incubated for 48 hrs by SRB assay; assay type: functional; details: read-out: LC50 (the source's name)
[37] = system: MDA-MB-231; test: Anticancer activity against human MDA-MB-231 cells assessed as lethality incubated for 48 hrs by SRB assay; assay type: functional; details: read-out: LC50 (the source's name)
[38] = system: Hs-578T; test: Anticancer activity against human Hs-578T cells assessed as lethality incubated for 48 hrs by SRB assay; assay type: functional; details: read-out: LC50 (the source's name)
[39] = system: A549; test: Anticancer activity against human A549 cells assessed as cell growth inhibition incubated for 72 hrs by MTT assay; assay type: functional
[40] = system: MCF7; test: Anticancer activity against human MCF7 cells assessed as cell growth inhibition incubated for 72 hrs by MTT assay; assay type: functional
[41] = system: U-251; test: Anticancer activity against human U-251 cells assessed as cell growth inhibition incubated for 72 hrs by MTT assay; assay type: functional
[42] = Selectivity index, ratio of GI50 for human HaCaT cells to GI50 for human MDA-MB-231 cells; assay type: toxicity; details: HaCaT cells versus MDA-MB-231 cells, read-out: RatioGI50
[43] = Selectivity index, ratio of GI50 for human HaCaT cells to GI50 for human KB 3-1 cells; assay type: toxicity; details: HaCaT cells versus KB 3-1 cells, read-out: RatioGI50
[44] = Cytotoxicity against mitogen activated human peripheral blood lymphocytes assessed as cell growth inhibition incubated for 48 hrs by MTT assay; assay type: toxicity, cell-based, Lymphocyte
[45] = system: Jurkat; test: Induction of morphological changes in human Jurkat cells assessed as change in cell shape incubated for 24 hrs by Hoechst 33258 and propidium iodide staining based fluorescence microscopy; assay type: functional
[46] = system: Jurkat; test: Induction of morphological changes in human Jurkat cells assessed as chromatin condensation incubated for 24 hrs by Hoechst 33258 and propidium iodide staining based fluorescence microscopy; assay type: functional, cell-based
[47] = system: Lymphocyte; test: Induction of morphological changes in mitogen activated human peripheral blood lymphocytes assessed as increase in necrotic cells incubated for 24 hrs by Hoechst 33258 and propidium iodide staining based fluorescence microscopy; assay type: toxicity, cell-based
[48] = system: LOX IMVI; test: Anticancer activity against human LOX IMVI cells assessed as inhibition of cell growth at 10 uM incubated for 48 hrs by SRB assay; values are per cent of control

O=C1CC(N2C(=O)/C(=C/C(Cl)=C/c3ccc([N+](=O)[O-])cc3)SC2=S)C(=O)N1c1ccc(O)cc1 (stereo unspecified)
GI50 [1]: 0.394 µM
GI50 [2]: 1.56 µM
GI50 [3]: 1.86 µM
GI50 [4]: 0.751 µM
GI50 [5]: 1.83 µM
GI50 [6]: 0.684 µM
GI50 [7]: 2.74 µM
GI50 [8]: 2.48 µM
GI50 [9]: 2.13 µM
GI50 [10]: 1.35 µM
GI50 [11]: 2.14 µM
TGI [12]: 6.63 µM
TGI [13]: 3.52 µM
TGI [14]: 4.23 µM
TGI [15]: 5.04 µM
TGI [16]: 2.92 µM
TGI [17]: 6.99 µM
TGI [18]: 2.7 µM
TGI [19]: 3.47 µM
TGI [20]: 3.38 µM
TGI [21]: 3.7 µM
TGI [22]: 3.22 µM
TGI [23]: 5.7 µM
CC50 [24]: > 100 µM
CC50 [25]: > 100 µM
CC50 [26]: 8.54 µM
CC50 [27]: 50.3 µM
CC50 [28]: 39.5 µM
CC50 [29]: 56 µM
CC50 [30]: > 100 µM
CC50 [31]: 15.8 µM
CC50 [32]: 8.97 µM
CC50 [33]: 7.51 µM
CC50 [34]: 9.05 µM
CC50 [35]: 24.6 µM
CC50 [36]: 6.62 µM
CC50 [37]: 15.9 µM
CC50 [38]: > 100 µM
GI50 [39]: 7.25 µM
GI50 [40]: 4 µM
GI50 [41]: 1.1 µM
selectivity ratio [42]: 11.9
selectivity ratio [43]: 9.2
GI50 at 48 h [44]: 51.2 µM
Activity [45]: Active
Activity [46]: Active
Activity [47]: Toxic
growth percent at 10 µM [48]: -83.7%

O=C1CC(N2C(=O)/C(=C/C(Cl)=C/c3ccc([N+](=O)[O-])cc3)SC2=S)C(=O)N1c1ccc(Cl)cc1 (stereo unspecified)
GI50 [1]: 0.544 µM
GI50 [2]: 1.64 µM
GI50 [3]: 1.73 µM
GI50 [4]: 1.35 µM
GI50 [5]: 1.96 µM
GI50 [6]: 0.508 µM
GI50 [7]: 3.12 µM
GI50 [8]: 2.92 µM
GI50 [9]: 1.01 µM
GI50 [10]: 1.07 µM
GI50 [11]: 3.75 µM
TGI [12]: 5.5 µM
TGI [13]: 4.31 µM
TGI [14]: 4.36 µM
TGI [15]: 3.76 µM
TGI [16]: 3.03 µM
TGI [17]: > 100 µM
TGI [18]: 3.24 µM
TGI [19]: 2.97 µM
TGI [20]: 4.3 µM
TGI [21]: 4.46 µM
TGI [22]: 2.72 µM
TGI [23]: 3.1 µM
CC50 [24]: 54.9 µM
CC50 [25]: 71 µM
CC50 [26]: > 100 µM
CC50 [27]: > 100 µM
CC50 [28]: > 100 µM
CC50 [29]: > 100 µM
CC50 [30]: > 100 µM
CC50 [31]: > 100 µM
CC50 [32]: 7.54 µM
CC50 [33]: > 100 µM
CC50 [34]: 9.41 µM
CC50 [35]: > 100 µM
CC50 [36]: > 100 µM
CC50 [37]: > 100 µM
CC50 [38]: > 100 µM
GI50 [39]: 63.9 µM
GI50 [40]: 7.95 µM
GI50 [41]: 8.93 µM
selectivity ratio [42]: 15.5
selectivity ratio [43]: 1.42
GI50 at 48 h [44]: 28.9 µM
Activity [45]: Active
Activity [46]: Active
Activity [47]: Toxic
growth percent at 10 µM [48]: -71.7%
